Test system: IMQ-induced psoriasis inflammation
Experiment: IMQ-induced psoriasis mouse model: PASI scoring, ear thickness, spleen/body weight
Type: in vivo, BALB/c mice
Conditions: MTX 1 mg/kg orally per day
Protocol: The cream named Aldara (Meda Pharma, 3M Health Care) containing 5% Imiquimib (IMQ) was administered once a day for 6 days on the shaved backs and right ears of 8-11 weeks old adult male BALB/c mice such that a total of 62.5 mg cream is applied per day per animal thereby psoriasis inflammation was produced in the animal model. Vaseline was applied to the shaved area of the animals in the control group. The positive control group received 1 mg/kg Mtx (Methotrexate) orally per day. The drug was administered orally at a dose of 5 mg/kg once a day during the experiment. Administration of the drug to the animals in the group where the semi-therapeutic effect of the drug was to be tested was initiated 1 day after the onset of induction of psoriasis with IMQ, and continued until the end of the experiment period. Body weight, and redness, flaking and thickening on the skin were daily measured and scored according to the Psoriasis Area Severity. Index (PASI) to monitor the general health status of the animals and the induction of psoriasis with IMQ. As required by the model, thickening of the right ear skin was also recorded on a regular basis since the day the experiments began. At the end of the application, animals were anesthetized by isoflurane and then euthanized by cervical dislocation. The size and weight of the spleen tissues were recorded.

With `CN(Cc1cnc2nc(N)nc(N)c2n1)c1ccc(C(=O)N[C@@H](CCC(=O)O)C(=O)O)cc1` [MTX, Methotrexate] the “plaque formation (scaling) PASI score of IMQ-administered region on the back” value (as of the 4th day) was “decreased”, the “total PASI score” value (as of the 4th day) was “Decrease” and the “thickness PASI score of IMQ-administered region on the back” value (as of the 5th day) was “decreased”.

From patent publication US20210393724A1, “MEDICINE FOR TREATMENT OF PSORIASIS AND PRODUCTION METHOD THEREOF” (YEDITEPE UNIVERSITESI, priority 2018, published 2021)
